Results as given in patent US20220074923A1, “METHODS OF IDENTIFYING PARKIN-MEDIATED MITOPHAGY ACTIVATING AGENTS” (THE GOVERNING COUNCIL OF THE UNIVERSITY OF TORONTO, priority 2018, published 2022).

Tests used:
[1] = target: ROCK2 (Homo sapiens, UniProt O75116); conditions: biochemical and cell-based assays, previous studies; cited from earlier work
[2] = tested on: HeLa cells; test: Mito-QC assay (targeting of mitochondria to lysosomes); format: cell-based; conditions: 0.5 μM 2 h pre-treatment, 10 μM CCCP 6 h with E-64 and leupeptin
Method: HeLa cells were seeded into 6-well plates containing glass coverslips and allowed to adhere overnight. Cells were co-transfected with RGOMP25 and Cerulean-Parkin plasmids 24 hours prior to treatments. E-64 and leupeptin were added along with either DMSO or 10 μM CCCP for 6 hours prior followed by a PBS wash, fixation with 4% PFA and a final PBS wash prior to mounting onto glass slides with Fluoromount.
Cells were treated with 50 μM chloroquine for 16 hours prior to addition of E64, leupeptin, SR3677 and CCCP in the indicated treatment group. For the in vivo mitoQC assays, 5 7-day old male TH-GAL4>UAS-mitoQC were placed into vials containing water (control), sublethal 1 mM paraquat, 1 mM SR3677 alone and in combination with paraquat for 7 days. […] Fly brains were mounted in VectaShield™ mounting medium for imaging using the Zeiss LSM700 confocal fluorescence microscope with 40× 1.4 NA Oil Plan-APOCRAMAT objective and the appropriate lasers and filter. […]
Quantification of the RG assay was done using Fiji software. […] A red/green fluorescence intensity ratio was determined for each pixel. Pixels were considered red-only if the red/green fluorescence ratio was greater than or equal to 1.5. The area of red-only pixels over the total non-background area was determined and averaged across 4 independent trials in which at least 20 cells were quantified per treatment.

[3] = tested on: differentiated SH-SY5Y cells; test: Cell viability determination (ATP levels normalized to protein); format: cell-based; conditions: 24 hours
Method: SH-SY5Y cells were differentiated according to previously established protocol consisting of sequential treatment with retinoic acid followed by brain-derived neurotrophic factor^10. Cells were then seeded into white 96-well plates with white bottom and allowed to adhere overnight. Varying doses of SR3677 were combined with 500 μM paraquat and administered for 24 hours. Controls treated with 0.5 μM SR3677, equivalent volume DMSO and paraquat alone were also included. Following 24-hour incubation, cell media was aspirated and THE lysis buffer (50 mM Tris-HCl, 100 mM NaCl, 0.1 mM EDTA) containing protease inhibitor cocktail was added to each well. Half of the lysate volume was removed and aliquoted into a separate 96-well plate. ATP levels were measured in the opaque plate using the ATP determination (ThermoFisher A22066) assay kit and protein concentrations were measured using the Pierce BCA (ThermoFisher #23225) assay kit. ATP levels were normalized to protein concentration and then by the ratio for cells treated with paraquat alone in a control well on each plate.

[4] = tested on: HEK293 GFP Parkin cells; test: Parkin recruitment assay; format: cell-based
Method: HEK293 GFP Parkin cells were seeded into 12-well plates containing coverslips. Cells were treated with small molecules for 2 hours prior to mitophagy induction with 10 μM CCCP, unless indicated otherwise. Following fixation with 4% PFA, immunostaining was carried out using anti-ATP5A primary antibody and anti-mouse Alex Fluor 568.
To measure the percentage of cells with Parkin localized to mitochondria a 2 step process was employed: (1) whole cell segmentation based on GFP Parkin using CellProfiler software and (2) classification into Parkin distribution subpopulation using CellProfiler Analyst. The percentage of cells with Parkin localized to mitochondria was determined in each image. Images were taken at 20× magnification for this experiment, resulting in the classification of at least 300 cells in each treatment group per trial.

[5] = tested on: SH-SY5Y cells; test: Cell viability by crystal violet staining; format: cell-based; conditions: 0.5 μM pre-treatment, 10 μM CCCP 24 hours
Method: A) SH-SY5Y cells were pre-treated with either DMSO or 0.5 μM SR3677 prior to addition of either DMSO or 10 μM CCCP for 24 hours. Following treatment, cells were washed, fixed with 4% paraformaldehyde and stained with crystal violet dye. B) The OD at 550 nm was measured to assess crystal violet staining.
To determine whether these findings could be translated into dopaminergic neurons, the study was continued in the dopaminergic neuroblastoma SH-SY5Y cell line. Parkin undergoes a similar CCCP-dependent subcellular transition from cytosol to mitochondria in these cells^12. First, whether the viability of these cells would be improved by SR3677 was investigated. Initially, experiments were conducted using crystal violet staining as an indicator of cell viability. […] Next, SH-SY5Y cells were differentiated into a more neuron-like population according to protocols previously described^10 and ATP levels were measured. […] Varying concentrations of SR3677 were co-administered alongside the PD-causing toxin paraquat.

Sequence of ROCK2 (O75116 whole entry): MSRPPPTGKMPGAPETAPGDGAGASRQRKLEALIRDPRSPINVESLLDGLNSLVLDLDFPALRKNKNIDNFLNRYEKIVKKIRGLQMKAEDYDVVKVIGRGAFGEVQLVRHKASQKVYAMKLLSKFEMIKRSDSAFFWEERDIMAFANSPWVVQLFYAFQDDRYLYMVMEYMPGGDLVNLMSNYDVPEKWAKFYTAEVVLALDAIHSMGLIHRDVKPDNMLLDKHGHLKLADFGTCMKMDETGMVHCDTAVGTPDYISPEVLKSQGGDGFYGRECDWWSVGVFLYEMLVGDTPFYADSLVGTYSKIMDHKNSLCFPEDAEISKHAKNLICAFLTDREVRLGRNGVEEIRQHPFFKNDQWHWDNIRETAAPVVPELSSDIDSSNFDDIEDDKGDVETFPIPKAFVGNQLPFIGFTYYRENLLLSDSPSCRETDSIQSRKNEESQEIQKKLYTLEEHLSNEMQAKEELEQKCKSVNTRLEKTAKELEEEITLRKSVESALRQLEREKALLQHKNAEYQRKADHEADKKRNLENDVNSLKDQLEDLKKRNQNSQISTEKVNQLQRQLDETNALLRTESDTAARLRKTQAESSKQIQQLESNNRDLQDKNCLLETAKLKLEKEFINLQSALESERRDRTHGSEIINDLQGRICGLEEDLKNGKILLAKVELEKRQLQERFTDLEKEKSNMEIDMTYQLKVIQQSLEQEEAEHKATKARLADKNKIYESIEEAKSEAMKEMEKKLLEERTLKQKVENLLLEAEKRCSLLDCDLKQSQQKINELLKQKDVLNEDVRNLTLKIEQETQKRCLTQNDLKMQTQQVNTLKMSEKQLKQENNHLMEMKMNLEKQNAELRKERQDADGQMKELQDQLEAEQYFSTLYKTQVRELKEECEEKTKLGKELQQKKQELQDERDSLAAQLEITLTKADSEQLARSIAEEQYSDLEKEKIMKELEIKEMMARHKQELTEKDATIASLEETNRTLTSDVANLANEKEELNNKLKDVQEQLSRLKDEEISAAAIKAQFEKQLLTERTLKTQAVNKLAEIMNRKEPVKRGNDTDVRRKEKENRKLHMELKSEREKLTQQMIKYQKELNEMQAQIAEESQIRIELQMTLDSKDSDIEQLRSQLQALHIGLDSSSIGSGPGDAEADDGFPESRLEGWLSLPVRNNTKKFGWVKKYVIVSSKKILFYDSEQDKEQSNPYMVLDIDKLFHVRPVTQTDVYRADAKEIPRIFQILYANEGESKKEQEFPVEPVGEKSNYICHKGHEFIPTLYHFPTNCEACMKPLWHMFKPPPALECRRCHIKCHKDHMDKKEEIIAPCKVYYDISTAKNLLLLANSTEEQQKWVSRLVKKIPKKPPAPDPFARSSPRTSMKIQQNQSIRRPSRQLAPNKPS

## CN(C)CCOc1cc(-c2cn[nH]c2)ccc1NC(=O)[C@@H]1COc2ccccc2O1 [SR3677]
[1]
  ROCK2 inhibition: selectively inhibits ROCK2
[2]
  mitochondrial targeting to lysosomes (red-only mitochondrial area): increased the extent of mitochondrial targeting to lysosomes
[3]; 0.5 μM
  cell viability, compound alone: did not affect cell viability
[3]; varying concentrations with 500 μM paraquat
  viability of cells challenged with paraquat: improved the viability of cells challenged with paraquat in a dose-dependent manner
[4]; 0.5 μM, 17 hour and 2 hour pre-incubation, CCCP
  Parkin recruitment to damaged mitochondria: increased Parkin recruitment to damaged mitochondria
[4]; Homo sapiens, HEK293, 2 h pre-treatment, then 10 μM CCCP 1 h, read-out: EC50, percentage of cells with mitochondrial Parkin
  EC50: 57 nM
[4]; compound alone
  Parkin distribution in the absence of CCCP: diffuse
[4]; dose series, CCCP
  concentration at which the maximal effect on Parkin recruitment was achieved: ≤ 0.5 µM
[5]
  crystal violet staining (OD): increased crystal violet
